Data on eight molecules can be found in US5641779A, “Selective ligands of 5-HT1D -5-HT1B receptors derived from indolepiperazine which are useful medicaments” (Pierre Fabre Medicament, priority 1992, dated 1997).

Structures can show the parent of a compound that is named as a salt. Where two headings read alike, the source gives them in different places. A value given as a limit tells only on which side of the number the result lay.

The target in one assay is α1-Adrenergic receptor. The experiment in a line: α1-Adrenergic receptor binding (Leslie Morrow and Creese). Particulars: rat brain (title of cited method). The protocol:
(§1) The IC50 values of the various products which form part of this invention for the other receptors were measured according to the techniques described in the following references:
Leslie Morrow A. and Creese I. Characterization of α1-adrenergic receptor subtypes in rat brain: a reevaluation of ^3 H-WB4101 and ^3 H prazosin binding. Mol. Pharmacol. 29, 321-330, 1986.

Another assay concerns the target T1, α2-Adrenergic receptor (Rattus norvegicus, UniProt P22909).
T1 construct: in the rat brain; from tissue; host or cells: rat brain
T1 sequence (P22909 1-465): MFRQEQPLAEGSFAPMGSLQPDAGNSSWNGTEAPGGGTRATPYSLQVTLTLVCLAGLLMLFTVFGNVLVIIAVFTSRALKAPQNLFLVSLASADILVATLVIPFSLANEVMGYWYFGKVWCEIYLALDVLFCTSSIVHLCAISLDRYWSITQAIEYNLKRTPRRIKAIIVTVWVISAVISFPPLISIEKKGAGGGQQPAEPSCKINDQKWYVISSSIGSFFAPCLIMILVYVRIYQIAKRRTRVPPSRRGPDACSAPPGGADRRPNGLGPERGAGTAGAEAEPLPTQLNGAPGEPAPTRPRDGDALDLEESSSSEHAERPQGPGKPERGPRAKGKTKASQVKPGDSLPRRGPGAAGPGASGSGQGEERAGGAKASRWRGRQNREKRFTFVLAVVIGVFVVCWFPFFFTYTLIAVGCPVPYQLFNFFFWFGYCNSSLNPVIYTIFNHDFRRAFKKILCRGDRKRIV
The experiment in a line: α2-Adrenergic receptor binding (Mallard et al.). Particulars: rat brain (title of cited method); read-out: IC50 α2. The protocol: as §1
Mallard N. J., Tyacke R., Hudson A. L. and Nutt D. S. Comparative binding studies of ^3 -idazoxan and ^3 -RX821002 in the rat brain. Brit. J. Pharmacol. 102, 221P, 1991.

Another assay deals with T2, 5-HT2 (Rattus norvegicus, UniProt P14842).
T2 construct: from tissue
T2 sequence (P14842 whole entry): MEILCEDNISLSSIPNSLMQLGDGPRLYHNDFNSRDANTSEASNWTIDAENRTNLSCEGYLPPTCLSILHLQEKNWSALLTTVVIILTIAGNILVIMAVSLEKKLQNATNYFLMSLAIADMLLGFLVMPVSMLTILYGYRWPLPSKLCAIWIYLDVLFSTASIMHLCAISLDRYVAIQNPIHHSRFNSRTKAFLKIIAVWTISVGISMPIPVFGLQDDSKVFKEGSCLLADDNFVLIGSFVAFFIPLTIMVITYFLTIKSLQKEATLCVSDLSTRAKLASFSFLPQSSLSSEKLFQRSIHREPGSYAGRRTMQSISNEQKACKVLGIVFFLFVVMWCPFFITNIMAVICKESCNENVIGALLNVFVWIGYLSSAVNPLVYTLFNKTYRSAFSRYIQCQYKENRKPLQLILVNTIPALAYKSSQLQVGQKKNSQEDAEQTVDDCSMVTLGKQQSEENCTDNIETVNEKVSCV
The experiment in a line: 5-HT2 receptor binding (Leysen et al.). The following applies: 3H-ketanserine (title of cited method). The protocol:
as §1
Leysen J. E., Niemegeers C. J. E., Van Nueten J. M. and Laduron P.M. ^3 H-ketanserine (R 41468), a selective ^3 H ligand for serotonin2 receptor binding sites. Mol. Pharmacol., 21, 301-330, 1982.

Another assay concerns 5-HT1D. The experiment in a line: Affinity for 5-HT1D receptors (3H-5-HT binding, sheep caudate nuclei membranes). The following applies: Ratio of the IC50 values for the 5HT1A and 5HT1D receptors. The protocol:
This study is carried out according to the technique described by Herrick-Davis and Titeler (J. Neurochem. 50, 1624-1631, 1988).
Preparation of the membranes:
Sheep brains are removed at the local abattoir and transported in ice. The caudate nuclei are removed, weighed and homogenized with a Polytron for 20 sec. (speed 6-7) in 20 volumes of Tris-HCl 50 mM, pH 7.7. The homogenate is centrifuged for 10 min at 48,000 g with an L5 50E centrifuge (Beckman).
The pellet, taken up in 20 volumes of Tris-HCl 50 mM, pH 7.7, is placed in a water bath at 37° C. for 10 min and then recentrifuged for 10 min at 48,000 g. The pellet then obtained is immediately frozen in fractions containing 0.5 g of tissue.
The pellet is defrosted and homogenized with a Dounce in 80 volumes of Tris-HCl, 50 mM pH 7.7 containing 4 mM CaCl2, 10μM of pargyline and 0.1% of ascorbic acid.
Binding is carried out at 25° C. by incubating for 30 min:
0.1 ml of buffer or 10 μM, as final concentration, of sumatriptan, in order to obtain the non-specific binding, or the product which forms part of this invention at various concentrations (between 10^-10 and 10^-6 M).
0.8 ml of membrane suspension
0.1 ml of ^3 H-5-HT (15 to 30 Ci/mM, New England Nuclear France)
The incubation is brought to an end by rapid filtration through GF/B filters and rinsing with 3 times 3 ml of ice-cold buffer, using a harvester manufactured by Brandel which makes it possible to filter 48 samples. The filters are introduced into vials containing 4 ml of emulsifier-safe liquid scintillant (Packard) and the radioactivity measured with a Tri-carb 4640 counter (Packard).
The IC50 (concentration which inhibits the specific affinity by 50%) is determined graphically.

A further assay has as its target T3, 5-HT1A (Rattus norvegicus, UniProt P19327).
T3 construct: from tissue; host or cells: rat frontal cortex
T3 sequence (P19327 1-422): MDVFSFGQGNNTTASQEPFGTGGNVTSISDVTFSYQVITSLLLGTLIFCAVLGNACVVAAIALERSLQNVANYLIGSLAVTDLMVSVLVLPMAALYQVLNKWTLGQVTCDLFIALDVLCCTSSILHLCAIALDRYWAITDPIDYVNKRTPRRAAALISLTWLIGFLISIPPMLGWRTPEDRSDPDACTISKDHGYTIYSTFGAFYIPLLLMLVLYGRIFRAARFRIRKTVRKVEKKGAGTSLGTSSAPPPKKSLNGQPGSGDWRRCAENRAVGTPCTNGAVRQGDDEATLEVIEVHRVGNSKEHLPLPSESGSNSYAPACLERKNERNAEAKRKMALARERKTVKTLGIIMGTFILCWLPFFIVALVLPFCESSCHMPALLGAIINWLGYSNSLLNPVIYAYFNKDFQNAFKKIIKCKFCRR
The experiment in a line: 5-HT1A receptor binding (Peroutka). The protocol:
as §1
(§2) Peroutka S. J. Pharmacological differentiation and characterization of 5-HT1A, 5-HT1B and 5-HT1C binding sites in rat frontal cortex. J. Neurochem., 45, 529-540, 1986.

The next assay has as its target T4, 5-HT1C (Sus scrofa, UniProt K7GSR7).
T4 construct: serotonergic ligands to the porcine choroid plexus; from tissue; host or cells: porcine choroid plexus
T4 sequence (K7GSR7 1-457): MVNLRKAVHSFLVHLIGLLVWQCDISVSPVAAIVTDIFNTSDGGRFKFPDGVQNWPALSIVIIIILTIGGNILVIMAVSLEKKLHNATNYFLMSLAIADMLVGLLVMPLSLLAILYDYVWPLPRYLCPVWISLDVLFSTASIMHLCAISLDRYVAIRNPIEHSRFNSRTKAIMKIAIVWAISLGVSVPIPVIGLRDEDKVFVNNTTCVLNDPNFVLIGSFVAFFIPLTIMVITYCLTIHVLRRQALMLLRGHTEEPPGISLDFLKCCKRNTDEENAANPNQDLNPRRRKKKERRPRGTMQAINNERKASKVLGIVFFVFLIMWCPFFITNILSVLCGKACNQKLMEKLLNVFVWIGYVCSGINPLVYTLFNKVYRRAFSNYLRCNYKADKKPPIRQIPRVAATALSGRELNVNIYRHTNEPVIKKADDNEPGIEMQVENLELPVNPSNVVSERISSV
The experiment in a line: 5-HT1C receptor binding (Pazos et al.). On the set-up: species or system porcine. The protocol: as §1
Pazos A., Hoyer D. and Palacios J. M. The binding sites of serotonergic ligands to the porcine choroid plexus: characterization of a new type of serotonin recognition site. Eur. J. Pharmacol., 106, 539-546, 1985.

A further assay addresses T5, 5-HT1B (Rattus norvegicus, UniProt P28564).
T5 construct: from tissue; host or cells: rat frontal cortex
The experiment in a line: 5-HT1B receptor binding (Peroutka). The protocol: as §1, §2

In a further assay the target is T6, D2-Dopaminergic receptor (Canis lupus familiaris, UniProt Q9GJU1).
T6 construct: from tissue
T6 sequence (Q9GJU1 whole entry): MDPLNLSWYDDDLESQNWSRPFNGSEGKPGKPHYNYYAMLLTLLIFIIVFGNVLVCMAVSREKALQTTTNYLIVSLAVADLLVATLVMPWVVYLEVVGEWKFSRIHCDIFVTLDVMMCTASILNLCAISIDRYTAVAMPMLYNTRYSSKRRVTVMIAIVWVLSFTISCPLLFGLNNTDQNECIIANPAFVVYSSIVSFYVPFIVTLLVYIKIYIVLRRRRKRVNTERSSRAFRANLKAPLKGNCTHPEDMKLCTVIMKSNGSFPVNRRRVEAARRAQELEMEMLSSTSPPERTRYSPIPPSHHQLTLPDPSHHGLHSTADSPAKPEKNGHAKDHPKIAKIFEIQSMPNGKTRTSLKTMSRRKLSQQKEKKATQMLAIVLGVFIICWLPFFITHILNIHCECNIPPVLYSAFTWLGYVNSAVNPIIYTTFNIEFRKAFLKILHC
Put plainly: D2-Dopaminergic receptor binding (Nisnik et al.). The following applies: 3H-YM-09159-2 (title of cited method); read-out: IC50 D2. The protocol:
as §1
Nisnik H. B., Grigoriadis D. E., Pri-Bar I., Buckman O. and Seeman P. Dopamine D2 receptors selectively labeled by a benzamide neuroleptic: ^3 H-YM-09159-2 Naunyn-Schmiedeberg's Arch. Pharmacol. 329, 333-343, 1985.

[1] abbreviates: rat frontal cortex (title of cited method), mean, read-out: IC50 5-HT1A mean.
Setting [2] is: rat frontal cortex (title of cited method), mean, read-out: IC50 5-HT1B mean.

T5 sequence (P28564 whole entry): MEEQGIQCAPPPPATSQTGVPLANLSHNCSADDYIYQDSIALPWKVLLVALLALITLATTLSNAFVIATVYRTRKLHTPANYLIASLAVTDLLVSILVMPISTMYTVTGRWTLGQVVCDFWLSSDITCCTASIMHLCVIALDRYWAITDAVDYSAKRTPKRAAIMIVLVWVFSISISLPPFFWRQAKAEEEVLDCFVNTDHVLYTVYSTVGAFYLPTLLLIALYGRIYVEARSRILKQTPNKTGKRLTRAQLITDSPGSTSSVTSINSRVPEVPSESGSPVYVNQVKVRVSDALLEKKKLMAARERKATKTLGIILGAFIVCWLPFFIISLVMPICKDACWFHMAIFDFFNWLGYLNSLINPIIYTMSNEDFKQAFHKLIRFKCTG

As for `Cc1ccccc1N1CCN(C(=O)COc2ccc3[nH]cc(CCN)c3c2)CC1` [Example 1, 4-o-Tolyl-1-.(tryptamine-5-O-carboxymethyl)-piperazide hydrochloride], the half-inhibitory concentration (IC50) was > 1000 nM on α1-Adrenergic receptor; > 1000 nM at α2-Adrenergic receptor; > 1000 nM at 5-HT2; 23.5 nM on 5-HT1A; 3000 nM on 5-HT1C; 0.6 nM on 5-HT1B. For the same molecule, the IC50 at D2-Dopaminergic receptor is > 1000 nM. The “Ratio 1A/1D” value in the assay with 5-HT1D was found to be 11.2.

For `NCCc1c[nH]c2ccc(OCC(=O)N3CCN(c4cccc(C(F)(F)F)c4)CC3)cc12` [Example 3, 4-(a,a,a-Trifluoro-m-tolyl)-1-(tryptamine-5-O-carboxymethyl) piperazide hydrochloride], the half-inhibitory concentration (IC50) on α1-Adrenergic receptor is > 1000 nM; on α2-Adrenergic receptor it was > 1000 nM; on 5-HT2, > 1000 nM; at 5-HT1A it was 33.5 nM; at 5-HT1C it was 4000 nM; at 5-HT1B it was 1.9 nM. Further, the IC50 on D2-Dopaminergic receptor was > 1000 nM. The “Ratio 1A/1D” value with 5-HT1D worked out at 4.8.

Take `NCCc1c[nH]c2ccc(OCC(=O)N3CCN(c4cccc5ccccc45)CC3)cc12` [Example 4, 4-(Naphth-1-yl)-1-(tryptamine-5-O-carboxymethyl) piperazide hydrochloride]: the 50% inhibitory concentration (IC50) on α1-Adrenergic receptor was > 1000 nM; on α2-Adrenergic receptor, > 1000 nM; on 5-HT2, > 1000 nM; on 5-HT1A (setting [1]), 115 nM; at 5-HT1C it was 1800 nM; on 5-HT1B, 1.9 nM. For the same molecule, the half-inhibitory concentration (IC50) at D2-Dopaminergic receptor is > 1000 nM. In the assay with 5-HT1D, the “Ratio 1A/1D” value was 35.9.

As for `Cc1cccc(N2CCN(C(=O)COc3ccc4[nH]cc(CCN)c4c3)CC2)c1C` [Example 5, 4-(2,3-Xylyl)-1-(tryptamine-5-O-carboxymethyl) piperazide hydrochloride], the IC50 at α1-Adrenergic receptor was > 1000 nM; at α2-Adrenergic receptor, > 1000 nM; at 5-HT2, > 1000 nM; on 5-HT1A (setting [1]), 240 nM; on 5-HT1C, > 1000 nM; at 5-HT1B it was 6 nM. Besides, the IC50 at D2-Dopaminergic receptor is > 1000 nM. The “Ratio 1A/1D” value in the assay on 5-HT1D turned out to be 8.2.

For the molecule `Cc1cccc(N2CCN(C(=O)COc3ccc4[nH]cc(CCNC(=O)OC(C)(C)C)c4c3)CC2)c1C` [Example 5A, 4-(2,3 -Xylyl)-1-(tert-butoxycarbamate-tryptamine-5-O-carboxymethyl)piperazide hydrochloride], the IC50 is > 1000 nM on α1-Adrenergic receptor; > 1000 nM on α2-Adrenergic receptor; > 1000 nM at 5-HT2; 34.5 nM on 5-HT1A (setting [1]); 1000 nM at 5-HT1C (porcine choroid plexus (title of cited method), read-out: IC50 5-HT1C); 1 nM on 5-HT1B (setting [2]). Besides, the IC50 on D2-Dopaminergic receptor is > 1000 nM. Also, the “Ratio 1A/1D” value in the assay on 5-HT1D amounted to 17.3.

As for `CSc1ccc2c(c1)C(N1CCN(C(=O)COc3ccc4[nH]cc(CCNC(=O)OC(C)(C)C)c4c3)CC1)Cc1ccccc1S2` (centres unmarked) [Example 8, 1-[(tert-Butoxycarbamate)tryptamine-5-O-carboxymethyl]-4-[10-(8-methylthio-10-11-dihydrodibenzo[b, f]thiepine)]piperazide hydrochloride], the IC50 is > 1000 nM at 5-HT1A (setting [1]) and 1000 nM on 5-HT1B (setting [2]).

Take `Cc1ccccc1N1CCN(C(=O)C(C)Oc2ccc3[nH]cc(CCN)c3c2)CC1` (stereo not drawn) [Example 11, 4-o-Tolyl-1-[tryptamine-5-O-(α-methylcarboxymethyl)]piperazide hydrochloride]: the half-maximal inhibitory concentration (IC50) was > 1000 nM at 5-HT2, 125 nM at 5-HT1A (setting [1]), 1000 nM on 5-HT1C and 5.5 nM on 5-HT1B. In addition, the “Ratio 1A/1D” value in the assay with 5-HT1D worked out at 20.8.

Turning to `Cc1ccccc1N1CCN(C(=O)COc2ccc3[nH]cc(CCNC(=O)OC(C)(C)C)c3c2)CC1` [ID, 4-o-Tolyl-1-(tert-butoxycarbamate-tryptamine-5-O-carboxymethyl) piperazide hydrochloride], the IC50 is 8500 nM on α1-Adrenergic receptor; 7000 nM on α2-Adrenergic receptor; 2000 nM at 5-HT2; 120 nM on 5-HT1A (setting [1]); > 100 nM at D2-Dopaminergic receptor. In addition, the “Ratio 1A/1D” value in the assay with 5-HT1D is 18.5.
